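Growth conditions: 96-well plates. Treatment: test compound, 48 hours, 5 concentrations. Analysis: linear interpolation between bracketing concentrations; unreached endpoints set to highest concentration. GI50 = concentration required for 50% inhibition of growth.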 Calls of active or inactive are those of the source. No stated cut-off is given here; in the data, active = GI50 up to about 1.1 µM and inactive = higher.
Legend:
Assay in all cases: DTP human tumour cell line panel, 48 h
[1] = system: COLO 205
[2] = system: SW-620
[3] = system: NCI-H522
[4] = system: M14
[5] = system: OVCAR-5
[6] = system: SK-OV-3
[7] = system: SR
[8] = system: DMS-273
[9] = system: NCI-H226
[10] = system: UO-31
[11] = system: HCC 2998
[12] = system: A549
[13] = system: RPMI-8226
[14] = system: ACHN
[15] = system: SK-MEL-28
[16] = system: SNB-75
[17] = system: U-251
[18] = system: HOP-92
[19] = system: DU-145
[20] = system: Hs-578T

CCc1cccc(C(C)C)c1NC(=O)C(=O)C(C(=O)C(=O)OC)c1nc2ccccc2nc1O (stereo not drawn)
GI50 [1]: > 100 µM (inactive)
GI50 [2]: > 100 µM (inactive)
GI50 [3]: > 100 µM (inactive)
GI50 [4]: > 100 µM (inactive)
GI50 [5]: > 100 µM (inactive)
GI50 [6]: > 100 µM (inactive)
GI50 [7]: > 100 µM (inactive)
GI50 [8]: > 100 µM (inactive)
GI50 [9]: > 100 µM (inactive)
GI50 [10]: > 100 µM (inactive)
GI50 [11]: > 100 µM (inactive)
GI50 [12]: > 100 µM (inactive)
GI50 [13]: > 100 µM (inactive)
GI50 [14]: > 100 µM (inactive)
GI50 [15]: > 100 µM (inactive)
GI50 [16]: > 100 µM (inactive)
GI50 [17]: > 100 µM (inactive)
GI50 [18]: > 100 µM (inactive)

COc1ccccc1NC(=O)CC(=O)n1nc(C)c(/N=N/c2ccccc2Cl)c1C
GI50 [1]: > 100 µM (inactive)
GI50 [2]: > 100 µM (inactive)
GI50 [3]: > 100 µM (inactive)
GI50 [4]: > 100 µM (inactive)
GI50 [5]: > 100 µM (inactive)
GI50 [6]: 48.3 µM (inactive)
GI50 [7]: > 72.4 µM (inactive)
GI50 [8]: > 100 µM (inactive)
GI50 [9]: > 100 µM (inactive)
GI50 [10]: > 100 µM (inactive)
GI50 [11]: > 100 µM (inactive)
GI50 [12]: > 100 µM (inactive)
GI50 [19]: > 100 µM (inactive)
GI50 [20]: > 100 µM (inactive)
GI50 [13]: > 100 µM (inactive)
GI50 [14]: > 100 µM (inactive)
GI50 [15]: > 100 µM (inactive)
GI50 [16]: 25.5 µM (inactive)
GI50 [17]: 27.8 µM (inactive)
GI50 [18]: > 93.8 µM (inactive)

CC(/C=C/C=C\C=C\C=C(/C)C(=O)NC(C)CO)=C\C(C)C(O)/C(C)=C/C(C)CCc1ccccc1 (stereo not drawn)
GI50 [1]: 13.7 µM (inactive)
GI50 [2]: 13.6 µM (inactive)
GI50 [3]: 2.77 µM (inactive)
GI50 [4]: 8 µM (inactive)
GI50 [5]: 10.9 µM (inactive)
GI50 [6]: 16.4 µM (inactive)
GI50 [7]: 1.14 µM (inactive)
GI50 [8]: 1.87 µM (inactive)
GI50 [9]: 8.65 µM (inactive)
GI50 [10]: 5.11 µM (inactive)
GI50 [11]: 7.59 µM (inactive)
GI50 [12]: 4.05 µM (inactive)
GI50 [19]: 13.8 µM (inactive)
GI50 [20]: 19.3 µM (inactive)
GI50 [13]: 4.14 µM (inactive)
GI50 [14]: 0.274 µM (active)
GI50 [15]: 12.9 µM (inactive)
GI50 [16]: 13 µM (inactive)
GI50 [17]: 14.9 µM (inactive)
GI50 [18]: 5.41 µM (inactive)

— ChEMBL document CHEMBL1201862, “PubChem BioAssay data set” (2004)
